Experiment: xn = mol fraction of the nth substance listed
Conditions: for surface tension liquid-gas: Ring tensiometer; for mass density / speed of sound / viscosity: 100 kPa, Liquid

CCN1CCCC1=O [1-ethyl-2-pyrrolidinone] + NCCO
Conditions	mass density [kg/m3]	speed of sound [m/s]	surface tension liquid-gas [mN/m]	viscosity [mPa·s]
293.15 K, x1 = 0.1	1014.83	1694.5	44.9	16.56
293.15 K, x1 = 0.2002	1012.06	1652.1	42.4	11.56
293.15 K, x1 = 0.2999	1008.77	1621.1	41.1	8.317
293.15 K, x1 = 0.4002	1006.13	1596	39.8	6.255
293.15 K, x1 = 0.4999	1002.53	1575.8	39.1	4.742
293.15 K, x1 = 0.5996	999.47	1554.4	38.3	3.762
293.15 K, x1 = 0.7002	998.41	1540.5	37.7	3.101
293.15 K, x1 = 0.7999	997.76	1529.1	37.3	2.641
293.15 K, x1 = 0.8997	997.35	1519.5	37.1	2.325
293.15 K, x1 = 1	997.91	1513.2	36.5	2.132
303.15 K, x1 = 0.1	1006.71	1661.1	43.7	10.66
303.15 K, x1 = 0.2002	1003.8	1617	41.2	7.68
303.15 K, x1 = 0.2999	1000.38	1582.4	39.8	6.051
303.15 K, x1 = 0.4002	997.65	1560.4	38.5	4.76
303.15 K, x1 = 0.4999	993.9	1539.5	37.6	3.526
303.15 K, x1 = 0.5996	990.78	1517.3	36.7	2.912
303.15 K, x1 = 0.7002	989.74	1503.1	36.1	2.446
303.15 K, x1 = 0.7999	989.12	1491.9	36.2	2.147
303.15 K, x1 = 0.8997	988.75	1481.7	35.7	1.918
303.15 K, x1 = 1	989.34	1475	35.2	1.777
313.15 K, x1 = 0.1	998.53	1628	42.7	7.237
313.15 K, x1 = 0.2002	995.42	1582.8	40.2	5.477
313.15 K, x1 = 0.2999	991.88	1552.5	38.7	4.386
313.15 K, x1 = 0.4002	989.14	1527.9	37	3.553
313.15 K, x1 = 0.4999	985.23	1502.9	35.9	2.733
313.15 K, x1 = 0.5996	982.08	1480.5	34.9	2.322
313.15 K, x1 = 0.7002	981.06	1466.1	34.5	1.99
313.15 K, x1 = 0.7999	980.46	1454.9	35	1.775
313.15 K, x1 = 0.8997	980.14	1444.2	34.6	1.616
313.15 K, x1 = 1	980.76	1437.6	34.2	1.515
323.15 K, x1 = 0.1	990.31	1594.2	–	5.201
323.15 K, x1 = 0.2002	986.95	1549.2	–	4.011
323.15 K, x1 = 0.2999	983.29	1517.9	–	3.311
323.15 K, x1 = 0.4002	980.53	1493.2	–	2.734
323.15 K, x1 = 0.4999	976.53	1467	–	2.183
323.15 K, x1 = 0.5996	973.35	1443.8	–	1.884
323.15 K, x1 = 0.7002	972.34	1429.5	–	1.659
323.15 K, x1 = 0.7999	971.78	1418	–	1.503
323.15 K, x1 = 0.8997	971.5	1407.6	–	1.384
323.15 K, x1 = 1	972.16	1400.6	–	1.31

CCN1CCCC1=O [1-ethyl-2-pyrrolidinone] + OCCN(CCO)CCO
Conditions	mass density [kg/m3]	speed of sound [m/s]	surface tension liquid-gas [mN/m]	viscosity [mPa·s]
293.15 K, x1 = 0.1001	1112.5	1611.4	44.7	570.35
293.15 K, x1 = 0.2	1101.3	1598.1	43.4	312.31
293.15 K, x1 = 0.3	1089.95	1585.4	42	164.25
293.15 K, x1 = 0.4004	1077.59	1574.5	40.9	81.22
293.15 K, x1 = 0.5001	1066.06	1565.5	40.1	41.49
293.15 K, x1 = 0.6002	1053.3	1555.6	39.2	21.52
293.15 K, x1 = 0.7002	1040.32	1545.9	38.3	11.54
293.15 K, x1 = 0.8	1026.31	1536.1	37.8	6.382
293.15 K, x1 = 0.8998	1012.14	1525.5	36.9	3.627
293.15 K, x1 = 1	997.91	1513.2	36.5	2.132
303.15 K, x1 = 0.1001	1106.6	1588.7	43.9	252.99
303.15 K, x1 = 0.2	1095.17	1575.4	42.3	151.13
303.15 K, x1 = 0.3	1083.52	1562.2	41.3	85.6
303.15 K, x1 = 0.4004	1070.78	1548.9	40.2	46.14
303.15 K, x1 = 0.5001	1058.92	1538.5	39.2	25.54
303.15 K, x1 = 0.6002	1045.86	1526.5	38.6	14.29
303.15 K, x1 = 0.7002	1032.59	1514.2	37.5	8.268
303.15 K, x1 = 0.8	1018.3	1502.2	36.7	4.866
303.15 K, x1 = 0.8998	1003.86	1490.5	36	2.902
303.15 K, x1 = 1	989.34	1475	35.2	1.777
313.15 K, x1 = 0.1001	1100.7	1569.8	43	132.88
313.15 K, x1 = 0.2	1088.99	1555.1	41.6	82.06
313.15 K, x1 = 0.3	1076.98	1540.4	40.6	47.47
313.15 K, x1 = 0.4004	1063.92	1524.8	39.4	28.4
313.15 K, x1 = 0.5001	1051.74	1512.2	38.3	16.84
313.15 K, x1 = 0.6002	1038.43	1497.6	37.6	10.07
313.15 K, x1 = 0.7002	1024.86	1483.1	36.4	6.178
313.15 K, x1 = 0.8	1010.29	1468.6	35.8	3.794
313.15 K, x1 = 0.8998	995.57	1456.6	35	2.379
313.15 K, x1 = 1	980.76	1437.6	34.2	1.515
323.15 K, x1 = 0.1001	1094.74	1551.9	–	75.13
323.15 K, x1 = 0.2	1082.69	1534.9	–	46.57
323.15 K, x1 = 0.3	1070.36	1517.4	–	29.62
323.15 K, x1 = 0.4004	1057	1500.3	–	18.7
323.15 K, x1 = 0.5001	1044.54	1485.3	–	11.73
323.15 K, x1 = 0.6002	1030.97	1469.1	–	7.428
323.15 K, x1 = 0.7002	1017.11	1452.3	–	4.758
323.15 K, x1 = 0.8	1002.27	1435.5	–	3.06
323.15 K, x1 = 0.8998	987.27	1422.3	–	1.994
323.15 K, x1 = 1	972.16	1400.6	–	1.31
